Data from patent publication US5770691A, “Discriminatory substrates for MMP hydrolysis” (Regents of the University of Minnesota, priority 1995, dated 1998).
Like-named read-outs stand apart in the source and are kept apart here. Where a SMILES comes first, the peptide text is derived from it. [ ]: non-standard residue; d: D form. The star is where a group is joined. Dnp = O=[N+]([O-])c1ccc(*)c([N+](=O)[O-])c1; Mca = COc1ccc2c(CC(=O)*)cc(=O)oc2c1; Nva = CCC[C@H](N)C(=O)O

Legend:
[1] = biological target: T1, MMP-2 (Homo sapiens, UniProt P08253); experiment: Fluorometric hydrolysis of synthetic Mca/Lys(Dnp) substrates by MMP-2; format: biochemical; design: made in house; host or cells: native secreted protein purified from culture medium of human rheumatoid synovial cells; conditions: for site of hydrolysis by MMP-2: Edman degradation analysis after 36-72 hour treatment of substrate with MMP
T1 sequence (P08253 110-660): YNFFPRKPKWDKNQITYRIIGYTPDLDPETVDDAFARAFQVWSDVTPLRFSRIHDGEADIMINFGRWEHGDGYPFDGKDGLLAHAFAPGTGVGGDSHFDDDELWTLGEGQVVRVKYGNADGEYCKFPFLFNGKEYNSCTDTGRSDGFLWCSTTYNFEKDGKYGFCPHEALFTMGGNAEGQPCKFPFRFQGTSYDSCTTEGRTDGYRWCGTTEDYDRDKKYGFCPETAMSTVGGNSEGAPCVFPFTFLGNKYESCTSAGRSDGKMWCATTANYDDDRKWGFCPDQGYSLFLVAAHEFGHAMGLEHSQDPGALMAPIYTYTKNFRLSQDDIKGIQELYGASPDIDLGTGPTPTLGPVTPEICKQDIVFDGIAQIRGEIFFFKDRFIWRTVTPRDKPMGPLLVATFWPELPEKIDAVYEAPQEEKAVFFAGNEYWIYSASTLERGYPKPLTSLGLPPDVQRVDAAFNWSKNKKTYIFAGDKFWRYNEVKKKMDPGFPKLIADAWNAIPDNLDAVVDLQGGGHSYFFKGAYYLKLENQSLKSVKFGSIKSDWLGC
Excerpt: (§1) All MMPs were purified in zymogen form. ProMMP-1 (Suzuki et al., Biochem., 29, 10261 (1990)), proMMP-2 (Okada et al., Eur. J. Biochem., 194, 721 (1990)), and proMMP-3 (Ito et al., Arch. Biochem. Biophys., 267, 211 (1988)) were purified from the culture medium of human rheumatoid synovial cells stimulated with rabbit macrophage-conditioned medium. ProMMP-9 was purified from the culture medium of HT-1080 cells as described in Morodomi et al., Biochem. J., 285, 603 (1992). ProMMP-2 and proMMP-9 were activated by reacting with 1 mM 4-aminophenylmercuric acetate at 37° C. for 45 minutes and 32 hours, respectively. ProMMP-1 was activated by reacting with 1 mM 4-aminophenylmercuric acetate and an equimolar amount of MMP-3 at 37° C. for 6 hours. After activation, MMP-3 was completely removed from MMP-1 by affinity chromatography using an anti-MMP-3 IgG Affi-Gel 10 column. The resin, Affi-Gel 10 (Biorad, Emoryville, Calif.), was coupled to anti-MMP-3 IgG (Okada et al., Annals of Rheumat. Dis., 48, 645 (1989)) per the manufacturer's protocol. Pro-MMP-3 was activated by reacting with 5 μg/mL chymotrypsin at 37° C. for 2 hours. Chymotrypsin was inactivated with 2 mM diisopropylfluorophosphate. The amounts of active MMP-1, MMP-2, and MMP-3 were determined by titration with tissue inhibitor of metalloproteinase-1(TIMP1) over a concentration range of 0.1-3 μg/mL, while the amount of active MMP-9 was determined by titration with TIMP-2 (0.1-3 μg/mL). TIMP-1 was isolated from the medium of HT-1080 cells as described in Morodomi et al., Biochem J., 285, 603 (1992).
(§2) Substrates were prepared as 10 mM stock solutions in dimethylsulfoxide (DMSO). Fluorescent assays were performed at λex =325 nm and λem =393 nm, which should encounter no interference from Trp residues, using a Hitachi fluorescence spectrophotometer F-3010. Initial total hydrolysis assays were run at a substrate concentration of […] to avoid filtering effects. The change in fluorescence at this concentration was 110 based on total hydrolysis of 1 μM substrate. A typical assay was carried out by incubating 100 μL of various concentrations of a substrate with 10 μL of an enzyme solution (2-20 nM) in 50 mM Tris-HCl, pH 7.5, 0.15M NaCl, 10 mM CaCl2, 0.05% Brij 35, 0.02% NaN3. The reaction was stopped by addition of 900 μl of 3% (v/v) glacial acetic acid. MMP-3 activity at pH 6.0 was measured in 50 mM sodium acetate buffer, pH 6.0, instead of Tris-HCl buffer. The amount of substrate hydrolysis was calculated based on the fluorescence values of the Mca-Arg-Pro-Lys-Pro-Gln standard solution after substraction of the reaction blank value (stopping solution added before the enzyme). Individual kinetic parameters (kcat and KM) were determined over a substrate concentration range of 2.5-75 μM and calculated by double reciprocal plots.

[2] = biological target: T2, MMP-3 (Homo sapiens, UniProt P08254); experiment: Fluorometric hydrolysis of synthetic Mca/Lys(Dnp) substrates by MMP-3; format: biochemical; design: made in house; host or cells: native secreted protein purified from culture medium of human rheumatoid synovial cells; conditions: Edman degradation analysis after 36-72 hour treatment of substrate with MMP
Target sequence in this assay (P08254 100-477): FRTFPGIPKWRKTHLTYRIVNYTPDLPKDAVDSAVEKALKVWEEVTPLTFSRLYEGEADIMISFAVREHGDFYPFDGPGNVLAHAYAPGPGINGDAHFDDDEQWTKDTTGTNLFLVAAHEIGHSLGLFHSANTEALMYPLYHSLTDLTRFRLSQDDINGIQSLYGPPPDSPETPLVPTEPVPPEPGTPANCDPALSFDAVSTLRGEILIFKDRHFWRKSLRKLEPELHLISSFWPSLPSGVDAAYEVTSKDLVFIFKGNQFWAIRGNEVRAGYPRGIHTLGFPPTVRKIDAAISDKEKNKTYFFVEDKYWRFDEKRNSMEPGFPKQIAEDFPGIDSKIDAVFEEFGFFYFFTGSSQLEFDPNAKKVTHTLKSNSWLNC

[3] = biological target: T2, MMP-3; experiment: as above; format: biochemical; design: made in house; host or cells: native secreted protein purified from culture medium of human rheumatoid synovial cells; conditions: for kcat /Km: MMP-3, 37° C., pH 7.5
Excerpt: as §1, §2
Target sequence in this assay (P08254 100-477): as above

[4] = biological target: T3, MMP-9 (Homo sapiens, UniProt P14780); experiment: Fluorometric hydrolysis of synthetic Mca/Lys(Dnp) substrates by MMP-9; format: biochemical; design: made in house; host or cells: native secreted protein purified from culture medium of HT-1080 cells
Excerpt: as §1, §2

[5] = biological target: T3, MMP-9; experiment: as above; format: biochemical; design: made in house; host or cells: native secreted protein purified from culture medium of HT-1080 cells; conditions: Edman degradation analysis after 36-72 hour treatment of substrate with MMP
[6] = biological target: T4, MMP-1 (Homo sapiens, UniProt P03956); experiment: Fluorometric hydrolysis of synthetic Mca/Lys(Dnp) substrates by MMP-1; format: biochemical; design: made in house; host or cells: native secreted protein purified from culture medium of human rheumatoid synovial cells; conditions: for site of hydrolysis by MMP-1: Edman degradation analysis after 36-72 hour treatment of substrate with MMP
T4 sequence (P03956 100-469): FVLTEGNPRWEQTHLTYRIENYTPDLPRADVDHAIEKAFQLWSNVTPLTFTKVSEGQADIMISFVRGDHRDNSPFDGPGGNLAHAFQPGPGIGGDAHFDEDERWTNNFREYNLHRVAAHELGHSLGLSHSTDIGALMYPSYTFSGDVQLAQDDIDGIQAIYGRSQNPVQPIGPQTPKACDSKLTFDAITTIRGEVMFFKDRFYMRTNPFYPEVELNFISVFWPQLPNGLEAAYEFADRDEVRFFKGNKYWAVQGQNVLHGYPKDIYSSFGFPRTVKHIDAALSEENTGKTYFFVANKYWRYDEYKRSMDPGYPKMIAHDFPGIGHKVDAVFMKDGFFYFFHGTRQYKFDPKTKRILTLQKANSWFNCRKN
Excerpt: as §1, §2

[7] = biological target: T2, MMP-3; conditions: MMP-3 cleavage, cited from earlier work
Target sequence in this assay (P08254 100-477, species assumed): as the sequence (P08254 100-477) above

[8] = biological target: T2, MMP-3; conditions: cited from earlier work
Target sequence in this assay (P08254 100-477, species assumed): as the sequence (P08254 100-477) above

T3 sequence (P14780 107-707 limits assumed): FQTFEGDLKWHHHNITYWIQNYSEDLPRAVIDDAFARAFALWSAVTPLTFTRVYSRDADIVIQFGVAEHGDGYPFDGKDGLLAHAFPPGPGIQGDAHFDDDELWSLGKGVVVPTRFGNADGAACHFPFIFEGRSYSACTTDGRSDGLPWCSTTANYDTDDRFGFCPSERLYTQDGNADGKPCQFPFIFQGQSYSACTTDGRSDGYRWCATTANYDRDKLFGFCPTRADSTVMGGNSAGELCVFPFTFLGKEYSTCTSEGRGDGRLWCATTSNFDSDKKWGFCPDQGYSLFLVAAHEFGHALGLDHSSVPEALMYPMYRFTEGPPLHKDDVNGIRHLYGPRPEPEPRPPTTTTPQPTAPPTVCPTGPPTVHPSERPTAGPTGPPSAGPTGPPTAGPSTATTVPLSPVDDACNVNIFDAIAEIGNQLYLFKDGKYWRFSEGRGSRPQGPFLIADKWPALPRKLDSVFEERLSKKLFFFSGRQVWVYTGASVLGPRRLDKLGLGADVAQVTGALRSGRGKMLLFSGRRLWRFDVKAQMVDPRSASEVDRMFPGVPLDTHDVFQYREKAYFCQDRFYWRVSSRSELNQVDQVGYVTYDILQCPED

COc1ccc2c(CC(=O)N3CCC[C@H]3C(=O)N[C@@H](CCCCN)C(=O)N3CCC[C@H]3C(=O)N[C@@H](CCC(N)=O)C(=O)N[C@@H](CCC(N)=O)C(=O)N[C@@H](Cc3ccccc3)C(=O)N[C@@H](Cc3ccccc3)C(=O)NCC(=O)N[C@@H](CC(C)C)C(=O)N[C@@H](CCCCNc3ccc([N+](=O)[O-])cc3[N+](=O)[O-])C(=O)NCC(=O)O)cc(=O)oc2c1 [NFF-1, Mca-Pro-Lys-Pro-Gln-Gln-Phe-Phe-Gly-Leu-Lys(Dnp)-Gly] (Mca-PKPQQFFGLK(Dnp)G-OH)
site of hydrolysis by MMP-2 [1]: Gln--Phe bond
site of hydrolysis by MMP-3 [2]: Gln--Phe bond
kcat /Km [3]: 10,900 S^-1 M^-1
hydrolysis by MMP-3 compared with MMP-2 ([3]; MMP-3 and MMP-2): equally well
less activity of MMP-9 than MMP-3 towards the substrate ([4]; MMP-9 compared with MMP-3): 60%
site of hydrolysis by MMP-9 [5]: Gly--Leu bond
ratio of hydrolysis at the Gln-Phe and Gly-Leu bonds by MMP-1 ([6]; Edman degradation analysis after 36-72 hour treatment): 3.2
site of hydrolysis by MMP-1 [6]: Gln--Phe and Gly--Leu bonds
less activity of MMP-1 than MMP-3 towards the substrate ([6]; MMP-1 compared with MMP-3): 75%

CCC[C@H](NC(=O)[C@H](C)NC(=O)[C@H](Cc1ccc(O)cc1)NC(=O)[C@@H]1CCCN1C(=O)[C@H](CCCCN)NC(=O)[C@@H]1CCCN1C(=O)[C@H](CCCNC(=N)N)NC(=O)Cc1cc(=O)oc2cc(OC)ccc12)C(=O)N[C@@H](Cc1c[nH]c2ccccc12)C(=O)N[C@@H](CCSC)C(=O)N[C@@H](CCCCNc1ccc([N+](=O)[O-])cc1[N+](=O)[O-])C(N)=O [NFF-2, Mca-Arg-Pro-Lys-Pro-Tyr-Ala-Nva-Trp-Met-Lys(Dnp)-NH2] (Mca-RPKPYA[Nva]WMK(Dnp)-NH2)
site of hydrolysis by MMP-2 [1]: Ala--Nva bond
hydrolyzed more rapidly than NFF-1 by MMP-2 ([1]; rate relative to NFF-1): 5 times
site of hydrolysis by MMP-3 [2]: Ala--Nva bond
kcat /Km [3]: 59,400 S^-1 M^-1
hydrolyzed more rapidly than NFF-1 by MMP-3 ([3]; rate relative to NFF-1): 6 times
hydrolyzed more rapidly by MMP-3 than MMP-1 ([3]; selectivity MMP-3 over MMP-1): 60 times
hydrolysis by MMP-9 [4]: most rapidly hydrolyzed substrate for MMP-9 reported to date
hydrolyzed more rapidly than NFF-1 by MMP-9 ([4]; rate relative to NFF-1): 14 times
site of hydrolysis by MMP-9 [5]: Ala--Nva bond
site of hydrolysis by MMP-1 [6]: Ala--Nva bond
MMP-1 activity reduced compared to NFF-1 ([6]; relative to NFF-1): ~ 50%

Antithrombin III
kcat /Kb ([7]; determined at 37° C.): < 50 S^-1 M^-1

Dnp--Pro--Tyr--Ala"--"Tyr--Trp--Met--Arg--NH3 (Dnp-PYAYWMR-NH2; not fully specified; printed as Dnp—Pro—Tyr—Ala"—"Tyr—Trp—Met—Arg—NH$_3$) [literature fluorogenic substrate (Netzel-Arnett et al., 1991)]
kcat ([8]; MMP-3, assay at 23° C.): 0.24 S^-1
Km ([8]; MMP-3, assay at 30° C.): 100 µM
kcat Km ([8]; MMP-3, assay at 37° C.): 2,400 S^-1 M^-1

Dnp-Arg-Pro-Lys-Pro-Leu-Ala-Nva-Trp-NH2 (Dnp-RPKPLA[Nva]W-NH2; SMILES CCC[C@H](NC(=O)[C@H](C)NC(=O)[C@H](CC(C)C)NC(=O)[C@@H]1CCCN1C(=O)[C@H](CCCCN)NC(=O)[C@@H]1CCCN1C(=O)[C@H](CCCNC(=N)N)Nc1ccc([N+](=O)[O-])cc1[N+](=O)[O-])C(=O)N[C@@H](Cc1c[nH]c2ccccc12)C(N)=O) [literature fluorogenic MMP-3 substrate (Niedzwiecki et al., 1992)]
kcat Km ([8]; MMP-3, assay at 25° C.): 45,000 S^-1 M^-1

Gly--Pro--Gln--Gly"--"Ile--Ala--Met--Gln (chain 1 GPQG; chain 2 IAMQ; printed: Gly--Pro--Gln--Gly; printed: Ile--Ala--Met--Gln) [literature synthetic MMP-3 substrate (Fields, 1988)]
Km ([8]; MMP-3, assay at 30° C.): 5600 µM
kcat ([8]; MMP-3, assay at 30° C.): 0.69 S^-1
kcat Km ([8]; MMP-3, assay at 30° C.): 120 S^-1 M^-1

Human aggrecan: extracellular matrix protein cleaved by MMP-3 at Asn341-Phe342
kcat /Kb ([7]; determined at 22° C.): 4,000 S^-1 M^-1

Human α2 -macroglobulin: protein substrate of MMP-3; cleavage sites Gly679-Leu680 and Phe684-Tyr685
kcat /Kb ([7]; determined at 25° C.): 56,000 S^-1 M^-1

Substance P: 11 residue peptide substrate of MMP-3, cleaved at Gln6-Phe7 [reference compound]
kcat /Kb ([7]; determined at 37° C.): 1,790 S^-1 M^-1

α1 -Protease inhibitor: protease inhibitor cleaved by MMP-3 at Pro357-Met358
kcat /Kb ([7]; determined at 37° C.): 5,400 S^-1 M^-1
